Patent publication US7910575B2, “Prophylactic or therapeutic agents for allergic ophthalmic diseases or allergic nasal diseases, comprising tricyclic triazolobenzazepine derivative” (Meiji Seika Kaisha, Ltd., priority 2006, dated 2011)
Marks after values point to notes of the source that are not given here.

How the values were obtained:
rabbit eye (conjunctiva) = test: Severe eye irritation test using rabbits; type: in vivo; settings: 1%, instillation six times per day at 30 min intervals for two days
[1] = WO 99/16770; cited from earlier work
allergic rhinitis = test: Prophylactic effect on allergic rhinitis, oral administration; type: in vivo, rat; settings: 15 min before antigen administration
Procedure: The prophylactic effect of compound B on allergic rihinitis in the same manner as in Test Example 4-1, except that compound B was suspended in hydroxypropylmethylcellulose and the suspension was orally administered. The medicament was administered 15 min before the administration of the antigin (start of allergy).

SMILES: COc1cc2[nH]c(=O)c3nn(C(OC(=O)OC(C)C)C(C)C)nc3c(=O)c2cc1OC (stereo not shown) [Compound B, 2-(1-Isopropoxycarbonyloxy-2-methylpropyl)-7,8-dimethoxy-4(5H),10-dioxo-2H-1,2,3-triazolo[4,5-c][1]benzazepine]
- eye irritation (rabbit eye (conjunctiva)): only slight reddening of the conjunctiva was observed
- improvement of absorption upon oral administration as compared with compound A [1]: by a factor of seven
- Increase in dye leakage amount Inhibition ratio (allergic rhinitis; 1 mg/kg (200 μg/rat)): 46.3% **
- Increase in dye leakage amount Inhibition ratio (allergic rhinitis; 5 mg/kg (1000 μg/rat)): 81.9% **
